Experimental data as given in publication PMC7395176, “Retromer stabilization results in neuroprotection in a model of Amyotrophic Lateral Sclerosis” (Nature Communications, 2020).
Values joined by “and” are separate entries in the source; they are usually repeats but may differ in a detail not shown here. Identical values can stand only once.

How the values were obtained:
[1] = system: Vps35, Vps26, and Vps29 mRNAs; experiment: Real-time PCR of CRC genes in Neuro2a cells; format: cell-based; details: 10 μM, 48 h
Text: Lumbar spinal tracts dissected from saline-perfused mice or Neuro2A cells were lysed to extract total RNAs using the RNeasy Mini Kit (Qiagen) according to the manufacturer’s recommendations, including DNase (Promega) digestion. We synthetized the cDNA using ThermoScript RT-PCR System (Invitrogen) and Random Hexamer (Invitrogen), according to the manufacturer’s instructions. The LightCycler 480 System (Roche) and LightCycler 480 SYBR Green I Master Mix (Roche) were used for real-time PCR experiments. Normalization was obtained using the housekeeping gene Histone H3:
Compound 2a stabilizes VPS35 levels in Neuro2a cells
A cycloheximide (CHX) chase assay was performed to determine the degradation rate of VPS35 in Neuro2a cells (3x10^5 cells/well). Cells were treated with vehicle or 2a (10 µM) for 24 h, and then chased with CHX (10 µg/mL) for 2, 4 and 8h.
WBs for VPS35 and β-Actin levels. Quantifications of normalized VPS35 levels (means normalized ratios ± SEM versus the time 0) are shown inpanel b (vehicle: n=10 independent wells, 2a: n=8 independent wells obtained from 3 independent experiments; control vs. 2a at 8 hours: p=0.009). c, quantitative real time PCR for Vps35, Vps26 and Vps29 mRNA (Vps35: controls n=8 independent wells; 2a: n=9 independent wells; Vps26 and Vps29: n=9 independent wells/group); data were collected from 3 independent experiments. […]

Neuro2a cells = experiment: Neuro2a cell survival (CCK8) with increasing 2a concentrations; format: cell-based; details: 48 h
Procedure: We assessed the cytotoxicity of compound 2a, measuring survival of Neuro2a cells exposed to increasing 2a concentrations. […] We next checked for toxic effects of compound 2a in primary neuronal cultures coupled with Micro Electrode Array (MEA) devices. Mouse cortical neurons (E16.5) were plated on MEAs, kept in culture for 14 days to develop firing activity and recorded in presence of 2a.
Cell survival experiments were run on 96-well plates using Cell Counting Kit-8 (CCK8) survival kit (96992-Sigma–Aldrich) according the manufacturer’s recommendations. Compound 2a cytotoxicity was tested on Neuro2a cells receiving increasing amounts of compound 2a (1, 10, 50, 100, 200, 500, and 1000 µM) for 48 h. Data were acquired using an Epoch spectrophotometer equipped with the GEN5 (2.03.1) software (Agilent).

G93A mice = experiment: Daily treatment of G93A and WT mice, day 30 to day 100: tolerability, rotarod, histopathology; format: in vivo
Procedure: We administered compound 2a (10 mg/kg, i.p.) daily to G93A and WT littermates between day 30 and day 100. […] We next assessed the pathological degeneration of fibers in sciatic nerves of G93A mice treated with compound 2a. We observed axonal degeneration, with a substantial reduction of myelinated nerve fibers in vehicle-treated G93A mice (Fig. 5a, b)[39]. […] Using Luxol Fast Blue (LFB) to label lipoproteins of the myelin sheath, we analyzed myelination.
Mice were maintained under pathogen-free conditions at San Raffaele Hospital mouse facility (Milan, Italy). All efforts were made to minimize animal suffering and to reduce the number of mice used in accordance with the European Communities Council Directive of 24 November 1986 (86/609/EEC). The Ethics Review Committee approved experimental protocols according guidelines from the Italian Ministry of Health and from the Institutional Animal Care and Use Committee of the San Raffaele Scientific Institute (protocol number 704/2015PR). Transgenic mutant SOD1 mice carrying the SOD1^G93A allele (strain B6SJL-TgN[SOD1G93A]1GUR)[75] were purchased from Jackson laboratories, while C57BL/6J mice, used for breeding and experimental purposes, were purchased from Charles River (Italy). Both transgenic and WT mice had food and water freely available in the home-cage. The holding room was on a 12-h light–dark cycle, the temperature of the room was 22 ± 0.2 °C. Starting from day 30 we intraperitoneally injected compound 2a (10 mg/Kg) or vehicle in G93A mice as well as in C57BL/6J mice for 70 days. Additional experiments were performed injecting mice from day 83 to day 103. An operator blind to the treatment performed injections and manipulation of mice. At the day of the sacrifice, mice received an overdose of anesthetic drugs and they were perfused via vascular system with saline followed by 70–80 ml 4% paraformaldehyde (PF) in PBS, pH 7.2 (Sigma–Aldrich). Spinal cords were coronally sliced at ~6-mm thickness and postfixed in 4% PF in PBS, pH 7.2 for 12 h at +4 °C. Tissues were cryoprotected in PBS 1X/30% Sucrose (Sigma–Aldrich), embedded in OCT inclusion media and stored at −80 °C before processing. Lumbar spinal cords were 12-µm sectioned, labelled and digital images were acquired every 330 µm in a region encompassing 2.4 mm of the lumbar spinal cord. We determined numbers of mice by preliminary results or literature precedent.
Motor activity of mice receiving compound 2a or vehicle was assessed on 50-, 60-, 70-, 80-, 90-, and 100-days-old animals. Briefly, mice were trained 1 min on a static rotor and 1 min at constant speed (4 rpm) for two times and then we ran two trials performed over two consecutive days (one per day). Each trial consisted of 6-test sessions with 15 min interval between sessions. For each session, we placed mice on an accelerating rotor (4–40 rpm) and the latency to fall was recorded, with a maximum limit for individual animal set at 600 seconds.
Quantification of nerves degeneration was done on sciatic nerves obtained from saline-perfused mice. Tissues were fixed in 2% buffered glutaraldehyde (Sigma–Aldrich), postfixed in 1% osmium tetroxide and cut to obtain 1 µm thick sections. We stained sections with toluidine blue and specimens were blindly examined by light microscopy using ×40 objective. For each nerve, we merged images to obtain the entire nerve cross section. Five consecutive nonoverlapping semi-thin sections from each sample were analyzed with NHI-Image J software (US National Institutes of Health). Degenerating fibers were counted in the entire nerve cross section.
Quantification of myelin was done on sagittal sciatic nerves by Luxol fast blue (LFB). Briefly, nerve sections were incubated the ethanol series before receiving 0.1% LFB overnight at 60 °C. Sections were then incubated 5 min in 0.05% lithium carbonate before receiving the ethanol series and xylene. Bright field microcopy of nerves at ×63 was used for quantification. […]

## NC(N)=N/N=C/c1cccc(/C=N/N=C(N)N)c1 [compound 2a, phenyl-1,3-bis-guanylhydrazone]
[1]
  transcription levels of CRC genes (Vps35, Vps26, Vps29 mRNAs): did not influence
Neuro2a cells; 10 μM
  cell survival: did not affect cell survival
Neuro2a cells; 1–1000 µM
  LD50: 257.9 µM and ~260 µM
G93A mice; 10 mg/kg i.p. daily, day 30 to day 100
  distress or pain: did not observe distress or undesirable pain
G93A mice; G93A mice, 10 mg/kg i.p. daily, day 30 to day 100
  progression of motor deficits (latency to fall, rotarod): significantly slowed down
G93A mice; G93A mice, 10 mg/kg, day 100
  reduction of degenerating fibers in sciatic nerves: ~30%
G93A mice; G93A mice, 10 mg/kg, day 100, versus vehicle-treated G93A mice
  MNs in ventral horns of lumbar SCs: more MNs
G93A mice; SC ventral horn, G93A mice, 10 mg/kg, day 100, versus vehicle
  total number of Iba1+ cells: Neither CD14 levels nor the total number of Iba1^+ cells changed
G93A mice; WT and G93A mice, 10 mg/kg i.p. daily, day 30 to day 100
  body weight: slight, but not significant reduction of body weight
G93A mice; WT mice, 10 mg/kg i.p. daily, rotarod
  locomotion performances: did not observe alterations of locomotion performances
G93A mice; lumbar SCs, G93A mice, 10 mg/kg, day 100, versus vehicle
  CD14 levels: Neither CD14 levels nor the total number of Iba1^+ cells changed
G93A mice; sciatic nerves, G93A mice
  integrity of myelin (MBP, NF-M labelling): preserved the integrity of myelin
G93A mice; sciatic nerves, G93A mice, versus vehicle-treated G93A mice
  demyelination (Luxol Fast Blue): substantial reduction of demyelination
